# Laboratory results published in publication PMC10298530, “Synthesis and Anticancer Activity of A-Ring-Modified Derivatives of Dihydrobetulin” (International Journal of Molecular Sciences, 2023).
# Several values for one entry are separate records, joined by “and”; a condition that tells them apart may be missing. Equal entries are not always repeated. Where two headings read alike, the source gives them in different places.
# Experiments:
# Type in all cases: cell-based, human
# [1] = test system: Active Caspase-3 in HBL-100/Dox cells; assay: Flow cytometric analysis of active caspase-3, HBL-100/Dox; details: for gMIF, Active Caspase-3: 24 h
# Protocol: The cells were detached with accutase (HiMedia Laboratories, Maharashtra, India) and then fixed with 70% ice cold ethanol followed by overnight incubation at 4 °C. The cells were washed twice with PBS, permeabilized using 0.1% Triton X-100 in PBS solution, and subsequently stained with 5 μL of the BD Horizon™ BV605 Rabbit Anti-Active Caspase-3 antibody (BD Biosciences, Franklin Lakes, NJ, USA). The cells were then washed, resuspended in PBS, and analyzed using a CytoFlex S flow cytometer (Beckman Coulter, Brea, CA, USA). Cell fluorescence was evaluated on a CytoFlex S flow cytometer (Beckman Coulter, Brea, CA, USA). The results were analyzed using FlowJo software (ver. X 10.0.7r2, FlowJo Software, San Jose, CA, USA) and represented as geometric mean fluorescence intensity (gMFI).
# [2] = test system: HEpG2; assay: MTT cell viability assay, HEpG2; details: for IC50: Homo sapiens
# Excerpt: (§1) Blokhin National Medical Research Center of Oncology (the Ministry of Health of the Russian Federation, Moscow).
# [3] = test system: HBL-100/Dox cells; assay: Annexin V-FITC/PI assay, HBL-100/Dox; details: 16 h
# Protocol: Briefly, after exposing the cells to the tested and control compounds for 16 h, the cells were detached with accutase (HiMedia Laboratories, Maharashtra, India) and washed with cold PBS. Then, the cells were re-suspended in 100 μL of 1 × Binding Buffer at concentration 1 × 10^6 cells/mL and incubated with 5 μL Annexin V-FITC and 5 μL propidium iodide (PI) for 15 min at room temperature in darkness. After incubation, 400 μL of 1 × Binding Buffer was added to each tube. The samples were analyzed by flow cytometry (CytoFlex S, Beckman Coulter, Brea, CA, USA) within 1 h of staining, and the findings were analyzed using a trial version of the Kaluza software (Beckman Coulter, Brea, CA, USA).
# [4] = test system: HBL-100/Dox cells; assay: Hoechst 33342 / TMRE fluorescent microscopy, HBL-100/Dox
# Protocol: The DNA marker, termed Hoechst 33342 Ready Flow Reagent, was used as a stock solution (Invitrogen, ThermoFisher Scientific, USA). The mitochondrial marker, LumiTracker Mito TMRE (tetramethylrhodamine, ethyl ester; Lumiprobe, Moscow, Russia), was dissolved in DMSO as 1.0 mM stock solution. The marker of reactive oxygen species, H2DCFDA (Lumiprobe, Moscow, Russia), was dissolved in DMSO as 100.0 μM stock solution. After incubation, the cells were incubated with FBS-free culture medium containing the dye mixture of Hoechst 33342 (final concentration 1.0 μM) and LumiTracker Mito TMRE (final concentration 1.0 μM), or H2DCFDA dye taken alone (final concentration 1.0 μM), for 30 min at 37 °C in darkness. Fluorescence, at 420 nm (Hoechst 33342), at 510 nm (TMRE), and at 575 nm (H2DCFDA), of the test cultures (including controls) was analyzed immediately using a fluorescence microscope CKX 53 (Olympus, Tokyo, Japan). The TMRE fluorescence intensity was quantified using Fiji (ImageJ).
# [5] = test system: HBL-100/Dox cells; assay: Combined action of compounds, MTT assay on HBL-100/Dox cells
# Excerpt: The results were expressed pictorially using Prism 6.0 (GraphPad Software, Boston, MA, USA).
# [6] = test system: MS; assay: MTT cell viability assay, MS; details: for IC50: Homo sapiens;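 for IC50 (mean ± SD): MS is a melanocyte cell line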
# Excerpt: as §1
# [7] = test system: HCT116; assay: MTT cell viability assay, HCT116; details: for IC50: Homo sapiens, HCT-116
# Excerpt: as §1
# [8] = test system: HBL-100 cells; assay: Western blotting of cytochrome c, cleaved caspase-9 and -8, HBL-100; details: 16 h, IC50
# Protocol: The supernatant (cytosol fraction) and mitochondrial pellets were then collected, and protein concentration was determined by UV […] using 1–100 μg/mL BSA as standard curve concentrations (UV-2600i spectrophotometer; Shimadzu, Tokyo, Japan).
# Then, the same protein amounts (20.0 µg in each lane) were loaded and separated by 4–20% Mini-PROTEAN TGX Stain-Free Protein Gels (Bio-Rad Laboratories, Hercules, CA, USA), followed by transferring onto polyvinylidene difluoride (PVDF) membranes. The membranes were blocked with 1% (w/v) casein in Tris-buffered saline containing 0.1% Tween-20 (TBS-T), and were incubated overnight with primary antibodies (1:1000) of Cytochrome c (D18C7) Rabbit mAb, Cleaved Caspase-9 (Asp330) (E5Z7N) Rabbit mAb, Cleaved Caspase-8 (Asp374) (18C8) Rabbit mAb, and β-Actin (D6A8) Rabbit mAb (Cell Signaling Technology, Danvers, MA, USA) for cytosol and mitohondrial fractions at 4 °C. The next day, the PVDF membranes were washed thrice in TBS-T and incubated with HRP-conjugated secondary antibodies (1:1000) (Cell Signaling Technology, Danvers, MA, USA) for 1 h at RT. Immunoreactive proteins were detected by Clarity Western ECL Substrate (Bio-Rad Laboratories, Hercules, CA, USA) and then analyzed on the ChemiDoc MP Imaging system (Bio-Rad Laboratories, Hercules, CA, USA). The proteins were quantified by densitometry using Image Lab software (version 6.0; Bio-Rad Laboratories, Hercules, CA, USA). To normalize protein expression data, a blot with β-Actin was used.
# [9] = test system: MCF-7; assay: MTT cell viability assay, MCF-7; details: for IC50: Homo sapiens, MCF7
# Excerpt: as §1
compound,measurement,setting,value
"COC(=O)[C@]12CC[C@@H](C(C)C)[C@@H]1[C@H]1CC[C@@H]3[C@@](C)(CCC#N)[C@H](C(=O)C(Br)Br)CC[C@@]3(C)[C@]1(C)CC2 [compound 31, 2-Cyano-24,24-dibromo-4-oxo-3,4-seco-3,23-dinorlupan-28-oic acid methyl ester]","gMIF, Active Caspase-3",[1]; dose 2×IC50,19252±347
same,"gMIF, Active Caspase-3",[1]; dose IC50,13428±202
same,caspase-3 activation in comparison to the HBL-100 cells,[1]; after 24 h of MK treatment,doubly pronounced
same,IC50,"[2]; HEpG2, MTT, 72 h of treatment, read-out: IC50 Values (Mean ± SD)",16.6 ± 0.4 µM
same,IC50,"[2]; Table S1, HEpG2, read-out: IC50 (mean ± SD)",16.6 ± 0.41 µM
same,Selectivity index (SI),[2]; ratio of IC50 values healthy (HEK293) / HEpG2,0.69
same,Dead cells,[3]; dose 2xIC50,4.59±0.45%
same,Viable cells,[3]; dose 2xIC50,78.69 ± 1.29%
same,Early apoptotic cells,"[3]; dose 2xIC50, listed as MK",5.50±0.44%
same,Late apoptotic cells,"[3]; dose 2xIC50, listed as MK",10.94 ± 0.81% and 10.94±0.82%
same,Dead cells,[3]; dose IC50,2.52±0.08%
same,Viable cells,[3]; dose IC50,87.82 ± 0.44%
same,Early apoptotic cells,"[3]; dose IC50, listed as MK",5.04 ± 0.51% and 5.04±0.52%
same,Late apoptotic cells,"[3]; dose IC50, listed as MK",4.74 ± 0.44% and 4.74±0.04%
same,"mitochondrial membrane potential (MMP), TMRE fluorescence intensity","[4]; 16 h, vs untreated control",significant (p < 0.05) reduction in MMP
same,number of cells with nuclear morphology changes,"[4]; Hoechst 33342, 16 h, IC50 values (MK 1.8 µM)",33.1%
same,"number of living cells, compound vs its combination with verapamil","[5]; 72 h, 30 μM verapamil",remained unchanged
same,potentiation in the effectiveness of Dox,[5]; MK 0.6 μM combined with Dox,no potentiation
same,IC50,"[6]; MS, MTT, 72 h of treatment, read-out: IC50 Values (Mean ± SD)",16.5 ± 1.5 µM
same,IC50,"[6]; Table S1, MS, read-out: IC50 (mean ± SD)",16.5 ± 1.53 µM
same,Selectivity index (SI),[6]; ratio of IC50 values healthy (HEK293) / MS,0.70
same,IC50,"[7]; HCT116, MTT, 72 h of treatment, read-out: IC50 Values (Mean ± SD)",3.9 ± 0.1 µM
same,IC50,"[7]; Table S1, HCT116, read-out: IC50 (mean ± SD)",3.86 ± 0.08 µM
same,Selectivity index (SI),[7]; ratio of IC50 values healthy (HEK293) / HCT116,2.95
same,activation of caspase-8,[8],not observed
same,activation of caspase-9,[8],sequential activation of initiator caspase-9
same,cytochrome c release,[8],provoked the release of cytochrome c from mitochondria to cytosol
same,IC50,"[9]; MCF-7, MTT, 72 h of treatment, read-out: IC50 Values (Mean ± SD)",7.1 ± 0.7 µM
same,IC50,"[9]; Table S1, MCF-7, read-out: IC50 (mean ± SD)",7.06 ± 0.72 µM
same,Selectivity index (SI),[9]; ratio of IC50 values healthy (HEK293) / MCF-7,1.62
